Assays:
[1] = target: T1, hTRPM8 (Homo sapiens, UniProt Q7Z2W7); test: Whole-cell patch-clamp of WS-12-evoked currents in HEK293 cells expressing hTRPM8; type: cell-based
T1 construct: expressed in transfected cells; host or cells: HEK293 (transient, Lipofectamine 3000)
Text: We first used patch‐clamp to investigate the potency and blockade mechanism of compound 23 inhibiting WS‐12 evoked ionic currents in hTRPM8‐HEK293 cells. […] This blockade activity was reversible as virtually all WS‐12‐evoked ionic current could be recovered upon washout (Fig. 3A, bottom panel), thus preventing a use‐dependent side effect.
To unveil the underlying mechanism of channel blockade (competitive vs noncompetitive) we evaluated the effect of the α‐acyloxy carboxamide 23 on WS‐12 activating potency. For this purpose, we obtained the WS‐12 dose response in the absence and presence of 80 nM compound 23 (corresponding to its IC50 value).
For this purpose, we run 100 ms voltage ramps from −120 to 120 mV activated by WS‐12 in the absence and presence of 80 nM α‐acyloxy carboxamide 23.
(§1) Recording through patch‐clamp techniques was performed on HEK293 cells cultured in DMEM GlutaMax with 10% FBS and 1% P/S. The cell lines were authenticated following the standardization of STR Profiling guidelines (ANSI/ATCC ASN‐0002‐2022) using the CLA Identifier Plus PCR Amplification Kit (Thermo Fisher‐A44660) to analyze 16 highly variant human STRs. The cells were confirmed to be mycoplasma‐free. These cells were transiently transfected with plasmids encoding hTRPV1, hTRPM8, or hTRPA1 using Lipofectamine 3000. Transfected cells were seeded on 12 mm Ø glass coverslips treated with poly‐L‐lysine solution and recorded 2 days post‐transfection. The intracellular pipette solution included (in mM) 150 NaCl, 3 MgCl2, 5 EGTA, and 10 HEPES, pH 7.2 with CsOH, while the extracellular solution contained (in mM) 150 NaCl, 6 CsCl, 1 MgCl2, 1.5 CaCl2, 10 glucose, and 10 HEPES, pH 7.4 with NaOH. An EPC‐10 amplifier with Patchmaster software was used in whole‐cell experiments. Patch pipettes, created from thin‐wall borosilicate capillary glass tubing, were pulled with a Micropipette puller to a final resistance of 2–8 MΩ when filled with the internal solution. Recordings were acquired at 10 kHz and low‐pass filtered at 3 kHz, discarding recordings with leak currents > 200pA or series resistance > 20 MΩ. In voltage‐clamp recordings, cells were held at a constant potential, and the application of modulators was carried out using a gravity‐driven perfusion system. Total currents were normalized to the first current peak evoked by the activating stimuli. To study the effect of compound 23 on TRPM8 voltage dependence, a voltage step protocol from −120 to 120 mV was used with 100 ms steps of 20 mV from a holding potential at 0 mV. Leak currents were not subtracted, and conductance was calculated using the equation: G = I/(V − V r), where I is the measured ionic current, V is the applied voltage, and V r is the reversal potential that for the ionic conditions used was set to 0 mV.
Dose–response relationships for WS‐12 channel activation were normalized to the response of the channel to a saturating concentration of the agonist. Similarly, dose–response curves for blockade activity were normalized with respect to the response in the absence of the blocker. The experimental data were fitted to the Hill equation: Y=Bottom+Top‐Bottom/(1+10^ligand−LogIC50orLogEC50) using PRISM 9 software. Top was fixed to 100, as the unblocked response or the maximal response for WS‐12.

[2] = Metabolic stability and metabolite profile in mouse liver microsomes (MLM); type: in vitro ADME; details: phase I metabolites of compound 23 in MLM, LC-HRMS, estimated from total ion current
Protocol: Because of the lack of systemic activity of compound 23, we evaluated the in vitro plasmatic and hepatic metabolic stability. To this aim, compound 23 was exposed to mouse plasma and mouse liver microsome (MLM) fractions, and the residual substrate was measured after 1 h. Under these conditions, the residual substrate was about 97% and 90% in plasma and microsomes, respectively, denoting that this molecule suffers from mild hydrolysis of the ester group.
Metabolic biotransformation of compound 23 was investigated by tandem high‐resolution mass spectrometry using the software COMPOUND DISCOVERER 3.2™.
The standard incubation mixture (250 μL final volume) was carried out in a 50 mM Tris (tris[hydroxymethyl]aminomethane) buffer (pH 7.4) containing 150 mM KCl, […], 3.3 mM MgCl2, 1.3 mM NADPNa2, 3.3 mM glucose 6‐phosphate, 0.4 units·mL^−1 glucose 6‐phosphate dehydrogenase, acetonitrile as cosolvent (1% of total volume), and the substrate (50 μM). After pre‐equilibration of the mixture, an appropriate volume of MLM suspension was added to give a final protein concentration of 1.0 mg·mL^−1. The mixture was shaken for 60 min at 37 °C using a horizontal shaking thermostatic bath while protecting the samples from light. Control incubations were carried out without the presence of substrate, or NADPH regenerating system, or microsomes. Each incubation was stopped by the addition of 250 μL of ice‐cold acetonitrile, vortexed, and centrifuged at 13 000 r.p.m. for 5 min [68]. The supernatants were analyzed by LC‐UV and LC‐HRMS equipment (see Tables S1 and S2, Fig. S79 for full parameters setting in the Supporting Information).
The metabolic stability of the compound 23 was determined in vitro by measuring the residual peak area after incubation by LC‐UV analysis. Samples were further processed by LC‐HRMS equipment for metabolite profiling. Raw data files were processed using both XCALIBUR® and COMPOUND DISCOVERER 3.2® software (Thermo Scientific) using a customized workflow for the detection and identification of the expected and unknown metabolites (Fig. S80).

[3] = target: T2, hTRPA1 (Homo sapiens, UniProt O75762); test: Whole-cell patch-clamp of AITC-evoked currents in HEK293 cells expressing hTRPA1; type: cell-based; details: 5 μM compound, 60 μM AITC, −60 mV
T2 construct: expressed in transfected cells; host or cells: HEK293 (transient, Lipofectamine 3000)
T2 sequence (O75762 whole entry): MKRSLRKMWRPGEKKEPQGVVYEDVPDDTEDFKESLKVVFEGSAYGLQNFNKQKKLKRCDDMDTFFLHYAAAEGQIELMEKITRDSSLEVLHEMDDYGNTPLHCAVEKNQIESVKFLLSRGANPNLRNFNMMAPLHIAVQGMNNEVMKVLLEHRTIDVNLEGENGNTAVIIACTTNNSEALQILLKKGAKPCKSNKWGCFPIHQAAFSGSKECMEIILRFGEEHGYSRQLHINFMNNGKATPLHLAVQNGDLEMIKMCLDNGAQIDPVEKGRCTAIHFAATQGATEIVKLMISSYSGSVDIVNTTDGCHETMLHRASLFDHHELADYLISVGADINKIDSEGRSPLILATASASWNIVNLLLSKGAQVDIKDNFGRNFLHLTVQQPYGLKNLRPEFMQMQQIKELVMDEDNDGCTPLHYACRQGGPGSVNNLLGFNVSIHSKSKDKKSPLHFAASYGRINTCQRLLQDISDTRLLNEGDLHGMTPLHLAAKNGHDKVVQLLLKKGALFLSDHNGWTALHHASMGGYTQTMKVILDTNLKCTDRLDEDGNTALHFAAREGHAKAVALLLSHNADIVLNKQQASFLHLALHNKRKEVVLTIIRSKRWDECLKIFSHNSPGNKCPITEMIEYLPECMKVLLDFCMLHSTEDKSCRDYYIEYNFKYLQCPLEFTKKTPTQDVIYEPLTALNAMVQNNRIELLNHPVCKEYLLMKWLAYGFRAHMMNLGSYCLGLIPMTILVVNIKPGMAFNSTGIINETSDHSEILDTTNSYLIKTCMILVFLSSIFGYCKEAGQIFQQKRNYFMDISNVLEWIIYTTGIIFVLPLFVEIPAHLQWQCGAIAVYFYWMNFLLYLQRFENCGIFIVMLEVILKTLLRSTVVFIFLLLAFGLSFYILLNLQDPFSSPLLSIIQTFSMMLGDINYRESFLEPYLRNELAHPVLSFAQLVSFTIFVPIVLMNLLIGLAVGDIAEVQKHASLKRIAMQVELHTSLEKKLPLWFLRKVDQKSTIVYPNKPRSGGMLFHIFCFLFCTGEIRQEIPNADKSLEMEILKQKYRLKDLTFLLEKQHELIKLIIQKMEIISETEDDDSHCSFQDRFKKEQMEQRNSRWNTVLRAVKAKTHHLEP
Protocol: To evaluate receptor selectivity, we investigated the activity of compound 23 on recombinant hTRPV1 and hTRPA1 channels recombinantly expressed in HEK293 cells (Fig. 4). We choose these thermosensory channels because of their structural similarity and expression in peripheral nociceptive terminals. In addition, some ligand cross‐interaction within these channels has been reported.
as §1, with “Total currents were normalized to the first current peak evoked by the activating stimuli. To study the effect of compound 23 on TRPM8 voltage dependence, a voltage step protocol from −120 to 120 mV was used with 100 ms steps of 20 mV from a holding potential at 0 mV.” left out, “mV. […]” for “mV.”

T1 sequence (Q7Z2W7 whole entry): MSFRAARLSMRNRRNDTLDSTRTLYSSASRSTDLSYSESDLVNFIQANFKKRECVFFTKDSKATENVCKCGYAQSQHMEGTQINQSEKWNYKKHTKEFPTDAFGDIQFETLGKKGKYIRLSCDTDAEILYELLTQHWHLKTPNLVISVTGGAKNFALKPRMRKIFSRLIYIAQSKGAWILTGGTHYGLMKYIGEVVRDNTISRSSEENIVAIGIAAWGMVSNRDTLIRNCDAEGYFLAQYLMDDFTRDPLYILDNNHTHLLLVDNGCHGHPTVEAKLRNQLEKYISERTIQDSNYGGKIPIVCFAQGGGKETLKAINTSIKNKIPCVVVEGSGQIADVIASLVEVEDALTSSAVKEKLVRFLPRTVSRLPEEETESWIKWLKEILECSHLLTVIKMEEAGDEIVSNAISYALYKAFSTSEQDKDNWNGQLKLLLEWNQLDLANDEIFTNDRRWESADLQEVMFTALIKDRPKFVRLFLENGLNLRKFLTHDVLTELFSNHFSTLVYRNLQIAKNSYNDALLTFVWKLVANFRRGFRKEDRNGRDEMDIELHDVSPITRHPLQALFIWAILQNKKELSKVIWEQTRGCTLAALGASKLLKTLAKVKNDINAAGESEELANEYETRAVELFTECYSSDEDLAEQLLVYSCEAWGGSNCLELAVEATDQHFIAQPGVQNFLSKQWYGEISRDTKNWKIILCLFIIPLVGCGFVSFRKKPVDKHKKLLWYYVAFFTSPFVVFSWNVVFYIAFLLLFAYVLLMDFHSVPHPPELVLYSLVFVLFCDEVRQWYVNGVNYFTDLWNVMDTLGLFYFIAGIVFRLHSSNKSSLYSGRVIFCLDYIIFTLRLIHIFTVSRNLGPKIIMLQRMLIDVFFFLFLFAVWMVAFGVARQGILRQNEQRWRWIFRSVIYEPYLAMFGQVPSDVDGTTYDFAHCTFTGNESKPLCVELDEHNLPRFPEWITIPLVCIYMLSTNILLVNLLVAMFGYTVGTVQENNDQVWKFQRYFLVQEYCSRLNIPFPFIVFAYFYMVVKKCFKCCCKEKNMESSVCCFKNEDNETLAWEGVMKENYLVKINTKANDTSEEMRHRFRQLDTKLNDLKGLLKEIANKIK

## Cc1cccc(COc2ccccc2C(=O)N(CCCN)Cc2cccs2)c1 [AMTB, N‐(3‐aminopropyl)‐2‐{[(3‐methylphenyl)methyl]oxy}(20)‐N‐(2‐thienylmethyl)benzamide, reference compound]
[1]; voltage steps −120 to 120 mV, 0.08 μM compound 23, 10 μM AMTB
  voltage dependency of channel blockade: not voltage dependent

## O=C(CO)NC12CC3CC(CC(C3)C1)C2 [Compound M1a]
[2]
  Metabolite relative abundancy: 18.7%

## CC(C)c1ccc(NC(=O)Cn2cnc3c2c(=O)n(C)c(=O)n3C)cc1 [HC030031, 2‐(1,3‐Dimethyl‐2,6‐dioxo‐1,2,3,6‐tetrahydro‐7H‐purin‐7‐yl)‐N‐(4‐isopropylphenyl)acetamide, reference compound]
[3]
  block of hTRPA1‐evoked (AITC) current: completely abrogated

## COc1ccc(NC(=O)[C@@H]2C[C@H](C)CC[C@H]2C(C)C)cc1 [WS‐12, (1R,2S,5R)‐N‐(4‐methoxyphenyl)‐5‐methyl‐2‐(propan‐2‐yl)cyclohexane‐1‐carboxamide, reference compound]
[1]; patch-clamp
  WS‐12 Hill coefficient in the absence of compound 23: 1.17
[1]; patch-clamp, 0.08 μM compound 23
  WS‐12 Hill coefficient in the presence of compound 23: 0.95
[1]; patch-clamp, n = 18, read-out: WS‐12 EC50 in the absence of compound 23
  EC50: 3 µM

Source: paper PMC12220852, “An adamantane‐based ligand as a novel chemical tool for thermosensory TRPM8 channel therapeutic modulation” (The Febs Journal, 2025)
